Legend:
[1] = test system: methacholine bronchoconstriction; experiment: SNAP aerosol during methacholine bronchoconstriction; assay type: in vivo, Hartley strain guinea pigs; conditions: nebulized, 20 breaths, 5 guinea pigs (FIG. 16)
Method: Male Hartley strain guinea pigs (300-440g body wt) were anesthetized with α-chloralose (50 mg/kg) and urethane (500 mg/kg) (Drazen et al., J. Appl. Physiol. 48:613-618, 1980). A tracheostomy was performed, and the animals were intubated with a tubing adaptor (ID 1.65 mm) and ventilated with a small animal ventilator (Harvard Apparatus, a division of Ealing Scientific, Natick, Mass.) at 8 ml/kg and 60 breaths/min. A jugular vein was cannulated for intravenous administration of drugs. The chest was opened by bilateral excision of a portion of the ribs anteriorly so that the lungs were exposed to atmospheric pressure (Shore and Drazen, J. Appl. Physiol. 67:2504-2511, 1989). A positive end expiratory pressure of 3-4 cmH2 O was provided.
Guinea pigs were then placed inside a plethysmograph (Amdur and Mead, Am. J. Physiol. 192:363-368, 1958), that was connected to a large reservoir containing copper mesh to maintain the plethysmograph isothermal. Plethysmograph pressure was measured with a differential pressure transducer (Celesco, Canoga Park, Calif.); the opposite side of this transducer was connected to a similar reservoir. Pressure at the airway opening was measured from a side tap in the tracheal canula. Transpulmonary pressure was measured with a differential pressure transducer (Celesco) as the difference between airway opening pressure and the pressure inside the plethysmograph. […]

[2] = Stability of SNAP; assay type: physicochemical; conditions: crystals at 0° C., up to 120 days, absorbance at 595 nm
From the text: Alternatively, a mammal (in particular, a human) with or at risk of developing bronchoconstriction (e.g., asthma) or reversible pulmonary vasoconstriction may be treated with a therapeutically-effective amount of a nitric oxide-releasing compound. Known nitric oxide-releasing compounds (also referred to as nitric oxide-donor or nitric oxide-generating compounds) useful in the methods and devices of the invention can be divided into three categories: (a) nitroso or nitrosyl compounds (e.g., S-nitroso-N-acetylpenicillamine, S-nitroso-L-cysteine, and nitrosoguanidine) characterized by an --NO moiety that is spontaneously released or otherwise transferred from the compound under physiological conditions such as obtain in the lung; (b) compounds in which NO is a ligand on a transition metal complex, and as such is readily released or transferred from the compound under physiological conditions (e.g., nitroprusside, NO-ferredoxin, or an NO-heme complex); and (c) nitrogen-containing compounds which are metabolized by enzymes endogenous to the respiratory and/or vascular system to produce the NO radical (e.g., arginine, glyceryl trinitrate, isoamyl nitrite, inorganic nitrite, azide, and hydroxylamine). […]

[3] = cited from earlier work
[4] = test system: experimentally-elevated PA pressure; experiment: SNAP inhalation in sheep with experimentally-elevated PA pressure; assay type: in vivo; conditions: inhalation 1.3 mg/kg
From the text: This method will provide a longer-lasting beneficial effect than briefly inhaling gaseous NO, as the deposited NO-releasing compound would slowly release NO over a relatively long period of time. Formulation and dosage of a selected NO-releasing compound can be determined without undue experimentation by one of ordinary skill in the art. As one example, a typical single inhaled dose of an NO-releasing compound such as S-nitroso-N-acetylpenicillamine (SNAP) or S-nitrosocysteine in dry powder form could range from 60 to 650 μg of the active compound (NO) per kg bodyweight, for approximately an hour of dilation.

- degradation on storage [2]: without detectable degradation
SMILES: CC(=O)N[C@H](C(=O)O)C(C)(C)SN=O (racemic) [SNAP, S-nitroso-N-acetylpenicillamine]
- duration of reduction of lung resistance [1]: about 15 minutes
- lung resistance [1]: prompt and profound reduction of lung resistance
- stability of solid form ([3]; solid form): stable in its solid form
- decomposition to release NO ([3]; under physiological conditions): readily decomposes to release NO
- PA pressure [4]: prolonged reduction in PA pressure
